A short description of data set [1]: TNS fluorescence assay: experimental pKa of formulated lipid nanoparticles. The data set is classed as physicochemical. To be noted: experimental surface pKa of empty LNP, cationic lipid/DSPC/cholesterol/PEG-lipid (50/10/38.5/1.5). The method, then:
The pKa of each cationic lipid was determined in lipid nanoparticles using an assay based on fluorescence of 6-(p-Toluidino)-2-naphthalenesulfonic acid sodium salt (TNS, Sigma Aldrich), which is a fluorescent probe for the conformational state of proteins^5. Empty lipid nanoparticles comprising of cationic lipid/DSPC/cholesterol/PEG-lipid (50/10/38.5/1.5) in distilled water at a concentration of 3.125 mM total lipid are formulated using NanoAssemblr® Spark™, and were then was characterized for LNP quality on the Zetasizer™ using a 30× dilution with 1×PBS in the low volume cuvette. Lipid nanoparticles were further diluted 4× using distilled water to 0.781 mM total lipid. TNS was prepared as a 25 μM stock solution in distilled water. Then 6.4 μL of diluted LNP samples of 0.781 mM total lipid were mixed with 10 μL of diluted TNS to a final volume of 250 μL with buffer containing 10 mM HEPES, 10 mM MES, 10 mM NH4OAc and 130 mM NaCl where the pH ranged from 3 to 9 in 0.5 pH increments.
Samples were mixed thoroughly, and the fluorescence intensity was measured at room temperature in a BioTek™ Synergy™ H1 Hybrid Multi-Mode Monochromator™ Fluorescence Microplate Reader using excitation and emission wavelengths of 321 nm and 445 nm respectively. A sigmoidal best fit analysis was applied to the fluorescence data using GraphPad Prism™ software, and the pKa was measured as the pH at half-maximal fluorescence intensity.

Data set [2] can be described thus: LNP characterization: size and PDI by dynamic light scattering, mRNA encapsulation efficiency by RiboGreen assay. The data set is classed as physicochemical. In a few lines:
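Lipid nanoparticles made by microfluidic mixing of mRNA or plasmid in 100 mM sodium acetate with ethanolic lipid mix (Ignite: 3:1 flow ratio, 12 ml/min; Spark: N/P 4, 6 or 10), diluted in PBS pH 7.4. Z-average size and PDI by backscatter DLS (173°, 633 nm, 10 runs × 2 cycles). Encapsulation by RiboGreen assay.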

Where [3] appears, read: 5-moU EPO encoded LNPs, IL:DSPC:cholesterol:DMG-PEG (50:10:38.5:1.5), N/P 6.
[4] abbreviates: OVA encoded LNPs, payload 5-moU OVA, LM02, N/P 8.
Where [5] appears, read: OVA encoded LNPs, payload WT OVA, LM02, N/P 8.
Where [6] appears, read: Table 4 LNPs, payload and lipid mix not stated.

Structures are written as SMILES.

By pKa is commonly meant the pH at which an ionisable group is half protonated.

For the molecule `CC/C=C\CC1C(CC(=O)OC(CCCCCCCCC2CC2CCCCCCCC)CCCCCCCCC2CC2CCCCCCCC)CCC1OC(=O)CCCN(C)C` (centres unmarked) [PNI 516], the pKa in data set [1] turned out to be 6.18. The “Diameter (Z. ave, nm)” value in data set [2] (setting [3]) was 69.0 nm; in data set [2] (setting [4]), 76.5 nm; in data set [2] (setting [5]), 75.9 nm; in data set [2] (setting [6]), 68.5 nm. Further, the “Encapsulation Efficiency (%)” value was 98.7% in data set [2] (setting [3]), 98.2% in data set [2] (setting [4]), 98.6% in data set [2] (setting [5]) and 98.7% in data set [2] (setting [6]). Moreover, the “Polydispersity Index (PDI)” value in data set [2] (setting [3]) stood at 0.02; in data set [2] (setting [4]) it was 0.04; in data set [2] (setting [5]) it was 0.02; in data set [2] (setting [6]), 0.12.
With `CCCCCCCCC1CC1CCCCCCCCOCC(COC(=O)CC1CCC(OC(=O)CCN(C)C)C1CC1CC1CC)OCCCCCCCCC1CC1CCCCCCCC` (centres unmarked) [PNI 546], the pKa in data set [1] amounted to 4.84. Also, in data set [2] (setting [3]), the “Diameter (Z. ave, nm)” value was 56.9 nm; the “Encapsulation Efficiency (%)” value came out at 96.3%; the “Polydispersity Index (PDI)” value came out at 0.09. In data set [2] (setting [6]), the “Diameter (Z. ave, nm)” value came to 64.0 nm; the “Encapsulation Efficiency (%)” value is listed as 96.3%; the “Polydispersity Index (PDI)” value was determined as 0.03.
For `CC/C=C\CC1C(CC(=O)OCC(COCCCCCCCC/C=C\C/C=C\CCCCC)OCCCCCCCC/C=C\C/C=C\CCCCC)CCC1OC(=O)C1CCN(C)CC1` (centres unmarked) [PNI 132], the pKa in data set [1] is 6.1. For the same molecule, the “Diameter (Z. ave, nm)” value was found to be 70.3 nm in data set [2] (setting [3]), 82.6 nm in data set [2] (setting [5]) and 74.5 nm in data set [2] (setting [6]). In addition, the “Encapsulation Efficiency (%)” value is reported as 98.2% in data set [2] (setting [3]), 97.1% in data set [2] (setting [5]) and 98.2% in data set [2] (setting [6]). Moreover, the “Polydispersity Index (PDI)” value was 0.04 in data set [2] (setting [3]), 0.07 in data set [2] (setting [5]) and 0.06 in data set [2] (setting [6]).
With `CC/C=C\CC1C(CC(=O)OC(CCCCCCCCC2CC2CCCCCCCC)CCCCCCCCC2CC2CCCCCCCC)CCC1OC(=O)CCN(C)C` (centres unmarked) [PNI 549], the pKa in data set [1] came out at 5.27. In data set [2] (setting [3]), the “Diameter (Z. ave, nm)” value came out at 62.5 nm; the “Encapsulation Efficiency (%)” value worked out at 97.4%; the “Polydispersity Index (PDI)” value is on record as 0.06. Moreover, in data set [2] (setting [6]), the “Diameter (Z. ave, nm)” value came to 71.2 nm; the “Encapsulation Efficiency (%)” value came to 96.4%; the “Polydispersity Index (PDI)” value is recorded as 0.05.
In the case of `CC/C=C\CC1C(CC(=O)OCCC(CCCCCCCC)OC(=O)C(CCCCCC)CCCCCCCC)CCC1OC(=O)CCN(C)C` (centres unmarked) [PNI 554], the pKa in data set [1] worked out at 5.52. In addition, in data set [2] (setting [3]), the “Diameter (Z. ave, nm)” value amounted to 55.4 nm; the “Encapsulation Efficiency (%)” value is on record as 97.5%; the “Polydispersity Index (PDI)” value is reported as 0.09. Further, in data set [2] (setting [6]), the “Diameter (Z. ave, nm)” value was 55.1 nm; the “Encapsulation Efficiency (%)” value was found to be 96.6%; the “Polydispersity Index (PDI)” value amounted to 0.06.
As for `CC/C=C\CC1C(CC(=O)OCC(COCCCCCCCCC2CC2CCCCCCCC)OCCCCCCCCC2CC2CCCCCCCC)CCC1OC(=O)CCN(C)C` (centres unmarked) [PNI 544], the pKa in data set [1] turned out to be 5.68. In data set [2] (setting [3]), the “Diameter (Z. ave, nm)” value stood at 62.3 nm; the “Encapsulation Efficiency (%)” value is on record as 97.6%; the “Polydispersity Index (PDI)” value is 0.05. Moreover, in data set [2] (setting [6]), the “Diameter (Z. ave, nm)” value was found to be 51.3 nm; the “Encapsulation Efficiency (%)” value is on record as 97.9%; the “Polydispersity Index (PDI)” value is given as 0.04.
Regarding `CC/C=C\CC1C(CC(=O)OCC(COCCCCCCCC/C=C\C/C=C\CCCCC)OCCCCCCCC/C=C\C/C=C\CCCCC)CCC1OC(=O)CC1CCCCN1C` (centres unmarked) [PNI 559], the pKa in data set [1] was determined as 5.16. In data set [2] (setting [3]), the “Diameter (Z. ave, nm)” value is 64.6 nm; the “Encapsulation Efficiency (%)” value came out at 97.3%; the “Polydispersity Index (PDI)” value is 0.03. For the same molecule, in data set [2] (setting [6]), the “Diameter (Z. ave, nm)” value amounted to 59.4 nm; the “Encapsulation Efficiency (%)” value was found to be 95.9%; the “Polydispersity Index (PDI)” value amounted to 0.07.
Consider `CC/C=C\CC1C(CC(=O)OCC(COCCCCCCCC/C=C\C/C=C\CCCCC)OCCCCCCCC/C=C\C/C=C\CCCCC)CCC1OC(=O)C1(C)CCN(C)CC1` (centres unmarked) [PNI 123], for which the pKa in data set [1] was 6.01. In data set [2] (setting [3]), the “Diameter (Z. ave, nm)” value was 76.6 nm; the “Encapsulation Efficiency (%)” value was determined as 97.3%; the “Polydispersity Index (PDI)” value is listed as 0.04. Also, in data set [2] (setting [5]), the “Diameter (Z. ave, nm)” value is 96.5 nm; the “Encapsulation Efficiency (%)” value came to 76.1%; the “Polydispersity Index (PDI)” value was 0.03. In data set [2] (setting [6]), the “Diameter (Z. ave, nm)” value came out at 124.7 nm; the “Encapsulation Efficiency (%)” value is 60.1%; the “Polydispersity Index (PDI)” value was determined as 0.054.

Source of the values: US12503432B2, “Ionizable lipids for nucleic acid delivery” (Global Life Sciences Solutions Canada ULC, priority 2019, dated 2025).
